Structures can show the parent of a compound that is named as a salt.
Legend:
[1] = system: acoustic trauma induced hearing loss; experiment: Auditory brainstem response (ABR) thresholds after acoustic trauma; type: in vivo, Wistar rats
Procedure: All experiments were performed using 7 week old male Wistar rats (CERJ, Le Genest, France) in accordance with the French Ministry of Agriculture regulations and European Community Council Directive no. 86/609/EEC, OJL 358. The rats were fed a standard diet ad libitum and maintained on a 12 h light-dark cycle.
Auditory Brainstem Reponses (ABR) and Distortion Product Otoacoustic Emissions (DPOAE) were recording using a RZ6 Auditory Workstation (Tucker-Davis Technologies, Alachua, FL, USA) with animals deeply anesthetized using 90 mg/kg ketamine and 10 mg/kg xylazine and placed on a 35° C. recirculating heating pad inside a sound attenuating cubicle (Med Associates Inc., St. Albans, VT, USA) throughout the experiment.
For ABR recordings, three stainless steel needle electrodes were placed subdermally over the vertex, the right mastoid and right hind leg of each animal. Tone-pips (5 msec duration presented at a rate of 21/s) at 8, 16 and 24 kHz were delivered to the right ear using a calibrated MF-1 speaker in closed-field configuration (Tucker-Davis Technologies, Alachua, FL, USA) at attenuating intensity until no reproducible response could be recorded. Close to the ABR threshold, the responses to 1000 acoustic stimuli in 5 dB steps were averaged. Responses were low-pass filtered at 3 kHz.
(§1) Animals were exposed to 121 dB octave band noise (8-16 kHz) for 2 h in groups of 4 rats, placed in individual compartments of a custom built circular cage placed on a 30 cm diameter platform rotating at 3 turns/minute (Aqila Innovation, Valbonne, France). The calibrated octave band noise generated by the RZ6 SigGen software was further amplified by a Crown D-75 amplifier in bridge mode (Crown Audio, Elkhart, IN, USA) and delivered by four Beyma CP16 compression tweeters (Acustica Beyma S. L., Moncada, Valencia, Spain) positioned 39 cm above the rotating platform, each 10 cm from the platform center.
(§2) Animals were treated by intraperitoneal injection daily for 14 days beginning immediately after acoustic trauma induction and subsequently repeated every 24 hours. The setron compounds granisetron HCl, ondansetron HCl, tropisetron HCl and azasetron HCl (Tocris Bioscience, Bristol, UK) were delivered dissolved in saline solution (1.6 mL/kg) while Tacrolimus (Selleck Chemicals, Houston, TX, USA) was dissolved in solution composed of 10% ethanol-100%/10% Kolliphor EL/1% Tween 80/79% saline (1.0 mL/kg). Placebo treated animals received injections of 1.6 mL/kg saline following the same treatment schedule.
(§3) Statistical analysis was performed using two-way ANOVA (Audiometry data: frequency and treatment group. Cochleograms: normalized distance from apex and treatment group) followed by Holm-Sidak post-hoc test for multiple comparisons. Results are given as mean±SEM and a p value less than or equal to 0.05 considered significant.
Baseline line audiometry (ABR and DPOAE measures) was performed for each animal 3 days before acoustic trauma was induced. Subsequently, audiometry measures were repeated 24 h and 14 days after acoustic trauma.
To quantify and compare the difference in treatment effects between groups while taking into account individual baseline and trauma variability, the hearing loss (ABR threshold shift & DPOAE amplitude loss) at D14 relative to baseline, as well as the functional recovery of hearing from 24 h to D14 (ABR threshold shift & DPOAE amplitude loss) were determined for all treatment groups.

outer hair cells = experiment: Outer hair cell loss (cytocochleograms) in cochleae fixed at D14 after acoustic trauma; type: in vivo, Wistar rats
Procedure: as §1, §2
After audiometry on day 14, animals were deeply anaesthetized with an intraperitoneal injection of pentobarbital (100 mg/kg). The cochleae were removed, fixed with 4% paraformaldehyde, pH 7.4, decalcified with 10% EDTA, pH 7.4 and then stained with myosin VIIa 1/1000. […] The mean loss of OHCs per group was subsequently calculated as a function of normalized distance from the apex in bins of 2.5% of the total length, using the total length of each histological specimen. Cell counts could reliably be obtained for up to 90% of the total distance from the apex (corresponding to the tonotopic region up to from 0 kHz to ~50 kHz in rat, Viberg & Canlon 2004), while the last 10% was too variable due to damage incurred during dissection.
as §3
To further support the conclusions from the functional audiometry data, the loss of outer hair cells in four treatment group was determined by constructing cytocochleograms from histological preparations of cochleae fixed after audiometry on day 14.

[2] = i.p. daily for 14 days after acoustic trauma, same doses as E4

## CN1C(=O)COc2c(C(=O)NC3CN4CCC3CC4)cc(Cl)cc21 (stereo not shown) [azasetron HCl, N-(1-azabicyclo[2.2.2]octan-8-yl)-6-chloro-4-methyl-3-oxo-1,4-benzoxazine-8-carboxamide]
[1]; day 14, i.p. daily for 14 days after acoustic trauma
  reduction of ABR threshold shifts compared to placebo treatment: 35-60%
[1]; [2]
  ABR threshold recovery from 24 h to day 14 compared to placebo: better ABR threshold recovery
  hearing outcomes (ABR thresholds and DPOAE amplitudes) at 14 days after acoustic trauma compared to placebo: better hearing outcomes across all frequencies
[1]; i.p. daily for 14 days from immediately after 121 dB trauma, azasetron HCl 4.22, ondansetron HCl 4, tropisetron HCl 3.5, granisetron HCl 3.8, Tacrolimus 1.5 mg/kg
  ABR threshold shift from baseline to day 14 compared to placebo: significantly lower ABR threshold shifts
[1]; placebo group only "slight improvement"
  ABR threshold improvement graded by typical clinical audiological criteria (Furuhashi et al. 2002): marked improvement to complete recovery
Outer hair cells; cochleae fixed after audiometry on day 14
  mean loss of outer hair cells compared to placebo: significantly lower mean loss
Outer hair cells; cochleae fixed at day 14
  reduction of mean outer hair cell loss compared to placebo treatment: 50-75%
